“Also recorded” adds a separate entry of the source.
Key:
[1] = MTT colorimetric assay, normal SVG p12 cells; conditions: human, SVG p12 cells (normal human brain astroglia), Cell viability (%) SVG p12, conc. 10 μM, 46 hours with drug, then 2 hours MTT, ratio to control group without drug
Excerpt: (§1) MTT (tetrazole) assay used to determine tumor viability is based on measurement of the activity of dehydrogenase to determine cell growth conditions. In live cells, dehydrogenase in active mitochondria converts yellow MTT [3-(4,5-dimethylthiazol-2-yl)-2,5-diphenyltetra zolium bromide] into purple formazan on the reductive cleavage of its tetrazolium ring. The formazan crystal is examined under the microscope. While the mitochondria in dead cells are without active dehydrogenase, no crystal is generated and the color remains yellow. After adding MTT into cell cultures and reacting for 2 hours, the amount of generated formazan precipitate is proportional to total amount of dehydrogenase. Removing the culture medium, add DMSO to dissolve the purple formazan precipitate. Then measure the absorbance of the precipitate by is measured by the spectrophotometer at 560/670 nm so as to learn inhibition effect of drugs acted on normal cells and tumor cells.
(§2) GBM 8401, GBM 8901 (human brain glioblastoma) and SVG p12 (human brain astroglia)cells line are selected to be used in 96 well petri dishes. Each well is filled into the same amount of cells-about 5000 cells per well. After being cultured for 24 hours and cells anchor/attach, the 96 wells are divided into two groups-an experimental group and a control group containing no samples. The samples are diluted into 10 μg/mL by culture medium. Take 200 μL of each sample and add into the experimental group and the control group is added with 200 μL culture medium without samples. After 46 hours of culture, each well is added with 10 μL MTT solution, incubate cells at 37° C., 5% CO2 for 2 hours.
(§3) Then each well is added with 100 μL, dissolving formazan. Shaking for 10 minutes and measure the absorbance at 560/670 nm of the sample by the spectrometer. The data of the experimental group is divided by the data of the control group to get the estimated cell viability.
(§4) Three cell lines-GBM 8401, GBM 8901, SVG p12 (normal) are used in cytotoxicity tests of 1,8-bis-substituted amidoanthraquinone. After reacting with the drug for 46 hours, the cells are reacted with certain amount of MTT solution. After 2 hours, DMSO is used to dissolve formazan and O.D. (optical density) at 560/670 nm is measured. Then calculate the radios of the experimental groups (with drugs) to the control groups (without drugs).

[2] = system: GBM 8401 (human brain glioblastoma) cells; assay: MTT colorimetric assay, GBM 8401 cells; conditions: for viability at 10 µM: Homo sapiens, read-out: Cell viability (%) GBM 8401, conc. 10 μM; for inhibition of proliferation of tumor cells GBM 8401 (in words): primary screening, 10 μM, criterion viability less than 80%
Excerpt: as §1, §2, §3, §4

[3] = system: GBM 8901 (human brain glioblastoma) cells; assay: MTT colorimetric assay, GBM 8901 cells; conditions: for viability at 10 µM: Homo sapiens, read-out: Cell viability (%) GBM 8901, conc. 10 μM; for inhibition of growth of tumor cells GBM 8901 (in words): primary screening, 10 μM, criterion viability less than 80%
Excerpt: as §1, §2, §3, §4

[4] = 46 hours with drug, then 2 hours MTT, ratio to control group without drug
[5] = conc. 10 μM, 46 hours with drug, then 2 hours MTT, ratio to control group without drug

Row | Compound | viability at 46 h, 10 μM [1] [%] | viability at 10 µM [2, 4] [%] | melting point [°C] | viability at 10 µM [3, 4] [%] | inhibition of growth of tumor cells GBM 8901 (in words) [3] | Cell viability (%) GBM 8401 [2, 5] [%] | inhibition of proliferation of tumor cells GBM 8401 (in words) [2] | Cell viability (%) GBM 8901 [3, 5] [%]
1 | COC(=O)[C@H](CC(C)C)NCC(=O)Nc1cccc2c1C(=O)c1c(NC(=O)CN[C@H](CC(C)C)C(=O)OC)cccc1C2=O [Compound 3g, 1,8-Bis[2-(leucinemethyl ester)acetamido]anthraquinone] | 153 ± 11 | 111 ± 8 | 238 to 239 | 89 ± 4 | – | – | – | –
2 | CC(C)CNCC(=O)Nc1cccc2c1C(=O)c1c(NC(=O)CNCC(C)C)cccc1C2=O [Compound 3k, 1,8-Bis[2-(isobutylamino)acetamido]anthraquinone] | – | 95 ± 12 | – | 57 ± 16 | inhibit growth | – | – | –
3 | COC(=O)[C@H](C)NCC(=O)Nc1cccc2c1C(=O)c1c(NC(=O)CN[C@H](C)C(=O)OC)cccc1C2=O [Compound 3i, (D)-1,8-Bis[2-(alalinemethyl ester)acetamido]anthraquinone] | – | – | – | – | – | 64 ± 13 | inhibit proliferation; also recorded: quite good inhibition effects | 99 ± 11
4 | CCN(CC)CCC(=O)Nc1cccc2c1C(=O)c1c(NC(=O)CCN(CC)CC)cccc1C2=O [Compound 4a, 1,8-Bis[3-(diethylamino)propionamido]anthraquinone] | 3 | 4 | 160 to 161 | 3 ± 2 | – | – | – | –
5 | CCNCC(=O)Nc1cccc2c1C(=O)c1c(NC(=O)CNCC)cccc1C2=O [Compound 3p, 1,8-Bis[2-(ethanamino)acetamido]anthraquinone] | 3 ± 1 | 2 ± 1 | – | 4 ± 1 | inhibit growth | – | inhibit proliferation; also recorded: quite good inhibition effects | –
6 | (S)-1,8-Bis[2-(phenylglycin methyl ester)acetamido]anthraquinone [Compound 3j] | – | – | – | – | inhibit growth | – | inhibit proliferation; also recorded: quite good inhibition effects | –
7 | COC(=O)[C@@H](NCC(=O)Nc1cccc2c1C(=O)c1c(NC(=O)CN[C@@H](C(=O)OC)C(C)C)cccc1C2=O)C(C)C [Compound 3d, (L)-1,8-Bis[2-(valinemethyl ester)acetamido]anthraquinone] | 87 ± 7 | 99 ± 40 | 150 to 151 | 97 ± 22 | – | – | – | –
8 | CCN(C)CCC(=O)Nc1cccc2c1C(=O)c1c(NC(=O)CCN(C)CC)cccc1C2=O [Compound 4k] | 2 | 1 ± 3 | 129 to 130 | 7 ± 3 | – | – | – | –
9 | COC(=O)[C@H](COC(C)(C)C)NCC(=O)Nc1cccc2c1C(=O)c1c(NC(=O)CN[C@H](COC(C)(C)C)C(=O)OC)cccc1C2=O [Compound 3t, 1,8-Bis[2-(tert-butyl-serinemethyl ester)acetamido]anthraquinone] | > 80 | 98 ± 19 | – | 69 ± 4 | inhibit growth | – | – | –
10 | O=C(CNCc1cccc(C(F)(F)F)c1)Nc1cccc2c1C(=O)c1c(NC(=O)CNCc3cccc(C(F)(F)F)c3)cccc1C2=O [Compound 3q, 1,8-Bis [2-(3-(trifluoromethyl)benzylamino)acetamido]anthraquinone] | 135 ± 20 | 120 ± 26 | 190 to 191 | 83 ± 10 | – | – | – | –
11 | CCCN(CCC)CCC(=O)Nc1cccc2c1C(=O)c1c(NC(=O)CCN(CCC)CCC)cccc1C2=O [Compound 4g] | 4 | 5 ± 1 | 129 to 130 | 8 ± 2 | – | – | – | –
12 | CN(C)CCC(=O)Nc1cccc2c1C(=O)c1c(NC(=O)CCN(C)C)cccc1C2=O [Compound 4f] | 4 ± 3 | 3 | 116 to 117 | 7 ± 3 | – | – | – | –
13 | CC(C)NCC(=O)Nc1cccc2c1C(=O)c1c(NC(=O)CNC(C)C)cccc1C2=O [Compound 3o, 1,8-Bis[2-(isopropylamino)acetamido]anthraquinone] | 4 ± 1 | 4 ± 1 | – | 5 ± 1 | inhibit growth | – | inhibit proliferation; also recorded: quite good inhibition effects | –
14 | CCCN(CCC)CC(=O)Nc1cccc2c1C(=O)c1c(NC(=O)CN(CCC)CCC)cccc1C2=O [Compound 3n, 1,8-Bis[2-(dipropylamino)acetamido]anthraquinone] | 73 ± 30 | 106 ± 24 | – | 73 ± 5 | inhibit growth | – | – | –
15 | CC(C)NCCC(=O)Nc1cccc2c1C(=O)c1c(NC(=O)CCNC(C)C)cccc1C2=O [Compound 4i] | 5 ± 1 | 2 ± 1 | 105 to 106 | 8 ± 2 | – | – | – | –
16 | CC(C)CNCCC(=O)Nc1cccc2c1C(=O)c1c(NC(=O)CCNCC(C)C)cccc1C2=O [Compound 4b, 1,8-Bis[3-(isobutylamino)propionamido]anthraquinone] | 4 | 4 ± 1 | 224 to 225 | 7 ± 3 | – | – | – | –
17 | CCCN(C)CC(=O)Nc1cccc2c1C(=O)c1c(NC(=O)CN(C)CCC)cccc1C2=O [Compound 3s] | 132 ± 3 | 103 ± 9 | 159 to 160 | 107 ± 9 | – | – | – | –
18 | COC(=O)CNCC(=O)Nc1cccc2c1C(=O)c1c(NC(=O)CNCC(=O)OC)cccc1C2=O [Compound 3a, 1,8-Bis[2-(glycinmethyl ester)acetamido]anthraquinone] | 93 ± 6 | 95 ± 10 | 173 to 174 | 104 ± 2 | – | – | – | –
19 | CCN(C)CC(=O)Nc1cccc2c1C(=O)c1c(NC(=O)CN(C)CC)cccc1C2=O [Compound 3r, 1,8-Bis[2-(ethylmethylamino)acetamido]anthraquinone] | 125 ± 7 | 90 ± 2 | 186 to 187 | 98 ± 12 | – | – | – | –
20 | CN(C)CCNCCC(=O)Nc1cccc2c1C(=O)c1c(NC(=O)CCNCCN(C)C)cccc1C2=O [Compound 4e, 1,8-Bis[2-(dimethylethanediamino)propionamido]anthraquinone] | 13 ± 3 | 14 ± 2 | 100 to 102 | 10 ± 5 | – | – | – | –
21 | COC(=O)[C@H]1CCCN1CC(=O)Nc1cccc2c1C(=O)c1c(NC(=O)CN3CCC[C@H]3C(=O)OC)cccc1C2=O [Compound 3c, 1,8-Bis[2-(prolinemethyl ester)acetamido]anthraquinone] | 121 ± 5 | 83 ± 15 | 170 to 171 | 96 ± 3 | – | – | – | –
22 | O=C(CCNCc1cc(F)cc(F)c1)Nc1cccc2c1C(=O)c1c(NC(=O)CCNCc3cc(F)cc(F)c3)cccc1C2=O [Compound 4c, 1,8-Bis[3-(3,5-difluorobenzylamino)propionamido]anthraquinone] | > 80 | 14 ± 1 | 190 to 191 | 11 ± 9 | – | – | – | –
23 | CN(C)CCCNCCC(=O)Nc1cccc2c1C(=O)c1c(NC(=O)CCNCCCN(C)C)cccc1C2=O [Compound 4j, 1,8-Bis[2-(dimethylpropanediamino)propionamido]anthraquinone] | 33 ± 16 | 9 ± 2 | 107 to 108 | 22 ± 9 | – | – | – | –
24 | CC(C)(C)OC(=O)NCCNCCC(=O)Nc1cccc2c1C(=O)c1c(NC(=O)CCNCCNC(=O)OC(C)(C)C)cccc1C2=O [Compound 4d, 1,8-Bis[2-(N-Boc-ethanediamino)propionamido]anthraquinone] | 8 ± 1 | 10 ± 5 | 101 to 102 | 4 | – | – | – | –
25 | CNCCC(=O)Nc1cccc2c1C(=O)c1c(NC(=O)CCNC)cccc1C2=O [Compound 4h] | 4 | 9 ± 2 | 233 to 234 | 10 ± 1 | – | – | – | –
26 | CCN(CC)CC(=O)Nc1cccc2c1C(=O)c1c(NC(=O)CN(CC)CC)cccc1C2=O [Compound 3l, 1,8-Bis[2-(diethylamino)acetamido]anthraquinone] | 123 ± 13 | 91 ± 17 | 228 to 229 | 94 ± 26 | – | – | – | –
27 | COC(=O)CN(C)CC(=O)Nc1cccc2c1C(=O)c1c(NC(=O)CN(C)CC(=O)OC)cccc1C2=O [Compound 3f, 1,8-Bis[2-(sacrocinemethyl ester)acetamido]anthraquinone] | 172 ± 2 | 130 ± 20 | 129 to 130 | 107 ± 5 | – | – | – | –
28 | CN(C)CC(=O)Nc1cccc2c1C(=O)c1c(NC(=O)CN(C)C)cccc1C2=O [Compound 3m, 1,8-Bis[2-(dimethylamino)acetamido]anthraquinone] | > 80 | 60 ± 5 | – | 84 ± 9 | – | – | inhibit proliferation; also recorded: quite good inhibition effects | –
